In patent US6737383B1, “Herbicidal oxadiazolidines” (priority 1999, dated 2004):

Assays:
corn = assay: Test B pre/postemergence corn; format: in vivo, Zea mays
From the text: (§1) Seeds of bedstraw (Galium aparine), blackgrass (Alopecurus myosuroides), surinam grass (Brachiaria decumbens), cocklebur (Xanthium strumarium), corn (Zea mays), crabgrass (Digitaria sanguinalis), giant foxtail (Setaria faberii), morningglory (Ipomoea hederacea), pigweed (Amaranthus retroflexus), rape (Brassica napus), soybean (Glycine max), sugar beet (Beta vulgaris), velvetleaf (Abutilon theophrasti), wheat (Triticum aestivum), wild oat (Avena fatua) and purple nutsedge (Cyperus rotundus) tubers were planted and treated preemnergence with test chemicals formulated in a non-phytotoxic solvent mixture which included a surfactant.
(§2) At the same time, these crop and weed species were also treated with postemergence applications of test chemicals formulated in the same manner. Plants ranged in height from 2 to 18 cm (1- to 4-leaf stage) for postemergence treatments. Plant species in the flood test consisted of rice (Oryza sativa), smallflower flatsedge (Cyperus difformis), duck salad (Heteranthera limosa) and bamyardgrass (Echinochloa crus-galli) grown to the 2-leaf stage for testing. Treated plants and controls were maintained in a greenhouse for twelve to sixteen days, after which all species were compared to controls and visually evaluated. Plant response ratings, summarized in Table B, are based on a scale of 0 to 10 where 0 is no effect and 10 is complete control. A dash (−) response means no test result.

wheat = assay: Test B pre/postemergence wheat; format: in vivo, Triticum aestivum
From the text: as §1, §2

morningglory = assay: Test B pre/postemergence morningglory; format: in vivo, Ipomoea hederacea
From the text: as §1, §2

rape = assay: Test B pre/postemergence rape; format: in vivo, Brassica napus
From the text: as §1, §2

crabgrass = assay: Test B pre/postemergence crabgrass; format: in vivo, Digitaria sanguinalis
From the text: as §1, §2

cocklebur = assay: Test B pre/postemergence cocklebur; format: in vivo, Xanthium strumarium
From the text: as §1, §2

blackgrass = assay: Test B pre/postemergence blackgrass; format: in vivo, Alopecurus myosuroides
From the text: as §1, §2

giant foxtail = assay: Test B pre/postemergence giant foxtail; format: in vivo, Setaria faberii
From the text: as §1, §2

surinam grass = assay: Test B pre/postemergence surinam grass; format: in vivo, Brachiaria decumbens
From the text: as §1, §2

velvetleaf = assay: Test B pre/postemergence velvetleaf; format: in vivo, Abutilon theophrasti
From the text: as §1, §2

purple nutsedge = assay: Test B pre/postemergence purple nutsedge; format: in vivo, Cyperus rotundus
From the text: as §1, §2

bedstraw = assay: Test B pre/postemergence bedstraw; format: in vivo, Galium aparine
From the text: as §1, §2

pigweed = assay: Test B pre/postemergence pigweed; format: in vivo, Amaranthus retroflexus
From the text: as §1, §2

wild oat = assay: Test B pre/postemergence wild oat; format: in vivo, Avena fatua
From the text: as §1, §2

sugar beet = assay: Test B pre/postemergence sugar beet; format: in vivo, Beta vulgaris
From the text: as §1, §2

soybean = assay: Test B pre/postemergence soybean; format: in vivo, Glycine max
From the text: as §1, §2

[1] = Postemergence, Rate 62 g/ha, scale 0 to 10, 0 is no effect, 10 is complete control
[2] = Postemergence, Rate 125 g/ha, scale of 0 to 10 where 0 is no effect and 10 is complete control
[3] = Preemergence, Rate 125 g/ha, scale of 0 to 10 where 0 is no effect and 10 is complete control
[4] = Preemergence, Rate 250 g/ha, scale 0 (no effect) to 10 (complete control)
[5] = Rate 62 g/ha, Preemergence, scale 0 to 10
[6] = Rate 250 g/ha, Postemergence, scale 0 to 10, 0 is no effect, 10 is complete control
[7] = Rate 500 g/ha, Postemergence, scale 0 to 10, 0 is no effect, 10 is complete control
[8] = Rate 500 g/ha, Preemergence, scale 0 to 10 (0 no effect, 10 complete control)

SMILES: C#CCn1c(=O)on(C(=O)N(c2ccccc2)C(C)C)c1=O [Compound 754]
- Plant response rating, Corn (corn; [1]): 0
- Corn plant response rating (corn; [2]): 0
- Plant response rating, Corn (corn; [3]): 0
- Corn plant response rating (corn; [4]): 0
- Corn plant response rating (corn; [5]): 0
- Corn plant response rating (corn; [6]): 2
- Corn plant response rating (corn; [7]): 5
- Corn plant response rating (corn; [8]): 0
- Plant response rating, Wheat (wheat; [1]): 0
- Plant response rating, Wheat (wheat; [3]): 3
- Wheat plant response rating (wheat; [4]): 7
- Wheat plant response rating (wheat; [5]): 0
- Wheat plant response rating (wheat; [6]): 5
- Wheat plant response rating (wheat; [7]): 5
- Wheat plant response rating (wheat; [8]): 9
- Plant response rating, Morningglory (morningglory; [1]): 10
- Morningglory plant response rating (morningglory; [2]): 10
- Plant response rating, Morningglory (morningglory; [3]): 0
- Morningglory plant response rating (morningglory; [4]): 1
- Morningglory plant response rating (morningglory; [5]): 0
- Morningglory plant response rating (morningglory; [6]): 10
- Morningglory plant response rating (morningglory; [7]): 10
- Morningglory plant response rating (morningglory; [8]): 1
- Plant response rating, Rape (rape; [1]): 0
- Rape plant response rating (rape; [2]): 0
- Plant response rating, Rape (rape; [3]): 4
- Rape plant response rating (rape; [4]): 6
- Rape plant response rating (rape; [5]): 0
- Rape plant response rating (rape; [6]): 0
- Rape plant response rating (rape; [7]): 0
- Rape plant response rating (rape; [8]): 8
- Plant response rating, Crabgrass (crabgrass; [1]): 5
- Crabgrass plant response rating (crabgrass; [2]): 5
- Plant response rating, Crabgrass (crabgrass; [3]): 9
- Crabgrass plant response rating (crabgrass; [4]): 9
- Crabgrass plant response rating (crabgrass; [5]): 8
- Crabgrass plant response rating (crabgrass; [6]): 9
- Crabgrass plant response rating (crabgrass; [7]): 9
- Crabgrass plant response rating (crabgrass; [8]): 9
- Plant response rating, Cocklebur (cocklebur; [1]): 0
- Cocklebur plant response rating (cocklebur; [2]): 0
- Plant response rating, Cocklebur (cocklebur; [3]): 0
- Cocklebur plant response rating (cocklebur; [4]): 0
- Cocklebur plant response rating (cocklebur; [5]): 0
- Cocklebur plant response rating (cocklebur; [6]): 0
- Cocklebur plant response rating (cocklebur; [7]): 0
- Cocklebur plant response rating (cocklebur; [8]): 0
- Plant response rating, Blackgrass (blackgrass; [1]): 2
- Blackgrass plant response rating (blackgrass; [2]): 4
- Plant response rating, Blackgrass (blackgrass; [3]): 9
- Blackgrass plant response rating (blackgrass; [4]): 9
- Blackgrass plant response rating (blackgrass; [5]): 7
- Blackgrass plant response rating (blackgrass; [6]): 5
- Blackgrass plant response rating (blackgrass; [7]): 5
- Blackgrass plant response rating (blackgrass; [8]): 9
- Plant response rating, Giant foxtail (giant foxtail; [1]): 4
- Giant foxtail plant response rating (giant foxtail; [2]): 8
- Plant response rating, Giant foxtail (giant foxtail; [3]): 9
- Giant foxtail plant response rating (giant foxtail; [4]): 9
- Giant foxtail plant response rating (giant foxtail; [5]): 8
- Giant foxtail plant response rating (giant foxtail; [6]): 8
- Giant foxtail plant response rating (giant foxtail; [7]): 8
- Giant foxtail plant response rating (giant foxtail; [8]): 9
- Plant response rating, B. signalgrass (surinam grass; [1]): 0
- B. signalgrass plant response rating (surinam grass; [2]): 2
- B. signalgrass plant response rating (surinam grass; Preemergence, Rate 62 g/ha, scale of 0 to 10 where 0 is no effect and 10 is complete control): 3
- Plant response rating, B. signalgrass (surinam grass; [3]): 3
- B. signalgrass plant response rating (surinam grass; [4]): 8
- B. signalgrass plant response rating (surinam grass; [6]): 6
- B. signalgrass plant response rating (surinam grass; [7]): 8
- B. signalgrass plant response rating (surinam grass; [8]): 9
- Plant response rating, Velvetleaf (velvetleaf; [1]): 0
- Plant response rating, Velvetleaf (velvetleaf; [3]): 1
- Velvetleaf plant response rating (velvetleaf; [4]): 3
- Velvetleaf plant response rating (velvetleaf; [5]): 0
- Velvetleaf plant response rating (velvetleaf; [6]): 0
- Velvetleaf plant response rating (velvetleaf; [7]): 0
- Velvetleaf plant response rating (velvetleaf; [8]): 5
- Plant response rating, Nutsedge (purple nutsedge; [1]): 0
- Nutsedge plant response rating (purple nutsedge; [2]): 0
- Plant response rating, Nutsedge (purple nutsedge; [3]): 3
- Nutsedge plant response rating (purple nutsedge; [4]): 3
- Nutsedge plant response rating (purple nutsedge; [5]): 3
- Nutsedge plant response rating (purple nutsedge; [7]): 0
- Nutsedge plant response rating (purple nutsedge; [8]): 10
- Bedstraw plant response rating (bedstraw; [2]): 0
- Plant response rating, Bedstraw (bedstraw; [3]): 0
- Bedstraw plant response rating (bedstraw; [4]): 0
- Bedstraw plant response rating (bedstraw; [5]): 0
- Bedstraw plant response rating (bedstraw; [6]): 0
- Bedstraw plant response rating (bedstraw; [8]): 0
- Redroot pigweed plant response rating (pigweed; [2]): 0
- Plant response rating, Redroot pigweed (pigweed; [3]): 8
- Redroot pigweed plant response rating (pigweed; [4]): 9
- Redroot pigweed plant response rating (pigweed; [5]): 8
- Redroot pigweed plant response rating (pigweed; [6]): 0
- Redroot pigweed plant response rating (pigweed; [8]): 9
- Plant response rating, Wild oats (wild oat; [1]): 0
- Plant response rating, Wild oats (wild oat; [3]): 6
- Wild oats plant response rating (wild oat; [4]): 8
- Wild oats plant response rating (wild oat; [5]): 0
- Wild oats plant response rating (wild oat; [6]): 0
- Wild oats plant response rating (wild oat; [7]): 0
- Wild oats plant response rating (wild oat; [8]): 9
- Plant response rating, Sugarbeets (sugar beet; [1]): 0
- Plant response rating, Sugarbeets (sugar beet; [3]): 0
- Sugarbeets plant response rating (sugar beet; [4]): 3
- Sugarbeets plant response rating (sugar beet; [5]): 0
- Sugarbeets plant response rating (sugar beet; [6]): 0
- Sugarbeets plant response rating (sugar beet; [7]): 3
- Sugarbeets plant response rating (sugar beet; [8]): 7
- Plant response rating, Soybean (soybean; [1]): 0
- Plant response rating, Soybean (soybean; [3]): 0
- Soybean plant response rating (soybean; [4]): 0
- Soybean plant response rating (soybean; [5]): 0
- Soybean plant response rating (soybean; [6]): 2
- Soybean plant response rating (soybean; [7]): 2
- Soybean plant response rating (soybean; [8]): 0
